ChEMBL document CHEMBL5029171, “Dynamics of Post-Translational Modification Inspires Drug Design in the Kinase Family” (J Med Chem, 2021)

Tests used:
[1] = biological target: Proto-oncogene tyrosine-protein kinase Src (Homo sapiens) (UniProt P12931); experiment: Binding affinity to human recombinant flag-tag c-Src protein (86 to 536 residues) expressed in Escherichia coli BL21 (DE3) cells assessed as change in melting temperature at 1:20 ratio incubated for 25 mins by protein thermal shift assay
Chain of Proto-oncogene tyrosine-protein kinase Src (Homo sapiens) (P12931 2-536 limits assumed): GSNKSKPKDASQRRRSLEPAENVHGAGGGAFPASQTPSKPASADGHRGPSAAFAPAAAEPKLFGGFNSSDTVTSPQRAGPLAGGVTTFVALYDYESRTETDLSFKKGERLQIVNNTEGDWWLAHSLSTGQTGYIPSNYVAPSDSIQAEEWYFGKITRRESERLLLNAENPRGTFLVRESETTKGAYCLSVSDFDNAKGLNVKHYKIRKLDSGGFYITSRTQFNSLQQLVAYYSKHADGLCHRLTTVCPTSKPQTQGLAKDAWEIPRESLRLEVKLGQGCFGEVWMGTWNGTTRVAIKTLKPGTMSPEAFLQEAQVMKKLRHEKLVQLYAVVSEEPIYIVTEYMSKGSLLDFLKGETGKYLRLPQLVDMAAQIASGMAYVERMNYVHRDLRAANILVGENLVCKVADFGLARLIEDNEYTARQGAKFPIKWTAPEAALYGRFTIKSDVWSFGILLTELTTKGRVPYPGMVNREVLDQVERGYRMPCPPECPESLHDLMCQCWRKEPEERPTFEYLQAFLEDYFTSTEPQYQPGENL

[2] = biological target: Proto-oncogene tyrosine-protein kinase Src (Homo sapiens) (UniProt P12931); experiment: Binding affinity to human recombinant flag-tag c-Src protein (86 to 536 residues) expressed in Escherichia coli BL21 (DE3) cells assessed as change in melting temperature at 1:5 ratio incubated for 25 mins by protein thermal shift assay
[3] = biological target: Proto-oncogene tyrosine-protein kinase Src (Homo sapiens) (UniProt P12931); experiment: Binding affinity to human recombinant flag-tag c-Src protein (86 to 536 residues) expressed in Escherichia coli BL21 (DE3) cells assessed as change in melting temperature at 1:10 ratio incubated for 25 mins by protein thermal shift assay
[4] = biological target: Proto-oncogene tyrosine-protein kinase Src (Homo sapiens) (UniProt P12931); experiment: Inhibition of human recombinant flag-tagged c-Src protein (86 to 536 residues) catalytic activity expressed in Escherichia coli BL21 (DE3) cells at 50 uM using biotinylated TK-substrate peptide as substrate preincubated for 1 hr followed by substrate addition and measured after 1 hr by HTRF assay relative to control; settings: time 2.0 hrs

| ΔTm [1] [°C] | ΔTm [2] [°C] | ΔTm [3] [°C] | inhibition [4] [%] | Structure (SMILES) |
| --- | --- | --- | --- | --- |
| 3.3 | 1.5 | 2.56 | > 60 | O=C(NC1CCCC1)C(c1ccc(F)cc1)N(C(=O)CCl)C1CC1 (stereo unspecified) |
|  |  |  | > 60 | COc1ccc(C(C(=O)NC2CCCC2)N(CCC2=CCCCC2)C(=O)CCl)cc1 (stereo unspecified) |
|  |  |  | > 60 | O=C(NC1CCCC1)C(c1ccc(Cl)cc1)N(Cc1cccs1)C(=O)CCl (stereo unspecified) |
